Where two headings read alike, the source gives them in different places.
Experiments:
nasal mucosa = conditions: in vivo; cited from earlier work
isolated nasal cilia = conditions: cited from earlier work
[1] = 6 mg/day for 12 weeks; cited from earlier work
[2] = cited from earlier work
[3] = DAPTA fibril formation / aggregation in solution by EM (Example 3); type: physicochemical
Experimental: Preparation of DAPTA solutions. DAPTA was dissolved in water, and solutions maintained at various temperatures and times. To prepare fibrils, DAPTA was prepared at 10 mgs/mL in water and stored overnight at 4° C.
Determining fibril formation.
In solution, DAPTA can be shown to form ordered aggregates by EM, FTIR, and CD and dye binding. Aggregation is promoted by concentration, increased ionic strength, and reduced temperature. Although the kinetics of aggregation appear to vary, from preparation to preparation, aggregation appears to be a property associated with all batches of DAPTA examined as measured by EM.
Fibrillization can be observed in solutions prepared in 0.9% saline (10 mg/mL) when stored at 4° C. in less than 1 hour. At room or ambient temperature, fibril formation can be observed within 48 hours, although there is variation from preparation to preparation. In distilled water, DAPTA solutions at 10 mg/ml readily form aggregates at 4 deg. C., within 2 hrs, and at room temperature, within 1-7 days.

envelop (gp120) = conditions: 1987 report; cited from earlier work
[4] = patients with moderate neuro-psychological impairment; cited from earlier work
HIV BaL = type: cell-based, HIV-1; conditions: dried
Experimental: Peptide was dissolved at 5 mg/ml in water, stored at ambient temperature, ca 23-27° C., and samples tested for biological activity in an HIV infection assay.
Inhibition of HIV infection is studied by utilizing an infection assay in which GHOST CD4 CCR5 cells are infected with HIV BaL, an R5 tropic isolate (Ruff, M R et al., 2001). Infection is detected via viral induction of the hGFP gene (green fluorescent protein) 48 hrs post-infection. Trays are measured in a plate reader to determine fluorescence intensity. All infections are performed by adding fresh culture medium containing approximately 1,000 infectious units of HIV-1 per well (96-well plates).
Samples were then aged by storage at ambient temperature (ca 25° C.) for 14 days prior to antiviral testing. […] In FIG. 5, only the short term 6 hour sample is stored at 4° C., while the other samples are stored at 37° C.
The peptide was dissolved in the indicated concentration of TFE in water and then shaken or agitated for 24 hrs at 37° C. The peptide was subsequently dried down, and the TFE/water mixture removed under vacuum. […] Although TFE is removed, residual traces of TFE within acceptable range for human consumption may remain.
Inhibition of HIV infection was studied by utilizing an infection assay using GHOST CD4 as previously described by Ruff, M R et al., 2001. CCR5 cells are infected with HIV BaL, an R5 tropic isolate. Infection is detected via viral induction of the hGFP gene (green fluorescent protein) about 48 hours post-infection. Trays were measured in a plate reader to determine fluorescence intensity. All infections were performed by adding fresh culture medium containing approximately 1,000 infectious units of HIV-1 per well (96-well plates).

[5] = Phase I, human; cited from earlier work
[6] = subcutaneously, cited from earlier work
[7] = 2 mg three times daily intranasally, cited from earlier work
HIV [8] = assay: Inhibition of HIV infectivity in vitro by stored DAPTA solutions; type: cell-based
Experimental: Aggregation is discovered to be associated with a loss of biological activity in vitro. Typically, the recommended protocol is to have DAPTA stored at 0.1 mM solutions in water at 4° C.
Aggregation is reduced in the presence of trifluoroethanol (TFE). TFE was selected because of its property of reducing certain types of protein-protein interactions. DAPTA was dissolved in either distilled water, or solutions containing between 60% and 100% TFE. Aggregation was evaluated by assaying inhibition of HIV infectivity, in vitro. […] Also, TFE is capable of disassociating preformed aggregates of DAPTA. Aggregates of DAPTA, formed in distilled water were disrupted by addition of TFE to 80%, as measured by EM.

HIV [9] = conditions: cited from earlier work

benzalkonium chloride [BAC]
Damage to the nasal mucosa (nasal mucosa): no significant damage | Mucosal ciliary clearance after application (nasal mucosa): slight prolongation | Nasal mucosal function (nasal mucosa): no detectable effect | Saccharine transport time or indicators of proinflammatory effects (nasal mucosa): did not alter | Ciliotoxicity (isolated nasal cilia): ciliotoxic

D-ala^1-peptide T-amide [DAPTA]
Treatment of painful peripheral neuropathy vs placebo [1]: no statistically significant differences | Patients with improved neuro-psychological performance ([2]; high dose (15 mg daily)): 4/5 | Patients with improved neuro-psychological performance ([2]; low dose (1.5 mg daily)): 1/4 | Time until fibrillization can be observed ([3]; 0.9% saline, 10 mg/mL, 4° C.): less than 1 hour | Time until fibril formation can be observed ([3]; 0.9% saline, 10 mg/mL, room or ambient temperature): ≤ 48 h | Effect of TFE on preformed aggregates, by EM ([3]; aggregates formed in distilled water, TFE added to 80%): disrupted | Time until aggregates form ([3]; distilled water, 10 mg/ml, 4 deg. C.): ≤ 2 h | Concentration that blocks envelop (gp120) binding and inhibits viral infectivity (envelop (gp120)): 10 pM | Cognitive and neuromotor function compared with controls [4]: improved | Percent Reduction in HIV Infection (HIV BaL; 0.1 nM DAPTA, TFE Concentration 40 %, shaken 24 hrs at 37° C., reconstituted in water, stored about 3 days): 0 ± 2% | Percent Reduction in HIV Infection (HIV BaL; 0.1 nM DAPTA, TFE Concentration 60 %, shaken 24 hrs at 37° C., reconstituted in water, stored about 3 days): 20 ± 4% | Percent Reduction in HIV Infection (HIV BaL; 0.1 nM DAPTA, TFE Concentration 100 %, shaken 24 hrs at 37° C., reconstituted in water, stored about 3 days): 98 ± 3% | Percent Reduction in HIV Infection (HIV BaL; 80% TFE, shaken 12 hrs at 37 degrees Celsius, in water about three days): 70 ± 4% | Percent Reduction in HIV Infection (HIV BaL; 80% TFE, shaken 48 hrs at 37 degrees Celsius, in water about three days): 100 ± 3% | Percent Reduction in HIV Infection (HIV BaL; 80% TFE, shaken about 24 hours at 37 ° C., in water about three days): 100 ± 5% | Percent Reduction in HIV Infection (HIV BaL; 80% TFE, shaken about 24 hours at Room Temp., in water about three days): 70 ± 6% | Toxicity [5]: complete lack of toxicity | Adverse drug effects ([6]; 3 to 70 weeks): No adverse drug effects were noted | Lower limb pain ([6]; initial dose 10 mg daily, nine individuals): complete or subjectively significant resolution of lower limb pain | Neuropsychological performance vs placebo ([7]; at least four months of treatment): no difference | Neuropsychological improvement after adjustment for baseline CD4 count [7]: greater improvement (p=0.07) | Storage time to substantial loss of activity (HIV uptake inhibition in vitro) (HIV [8]; 0.1 mM solutions in water at 4° C.): about 6 weeks | Activity retained on storage (inhibition of HIV infectivity in vitro) (HIV [8]; stored in TFE between 60% and 100% vs water): retained more activity | Virus levels in stored frozen plasma (HIV [9]; blind NIMH analysis): significant (p<0.04) treatment effect | Clinical benefits versus placebo (HIV [9]; more cognitively impaired patients): significant clinical benefits versus placebo
